In ChEMBL document CHEMBL1136333, “A novel series of histone deacetylase inhibitors incorporating hetero aromatic ring systems as connection units” (Bioorg Med Chem Lett, 2003):
pIC50: −log10 of the molar value.

Experiments:
HT-1080 [1] = assay: Antiproliferative activity against human HT1080 fibrosarcoma cell line at a dose of 50 uM; format: functional
[2] = molecular target: Histone deacetylase (HDAC1 and HDAC2) (Homo sapiens, UniProt Q13547+Q92769); assay: Inhibitory activity against histone deacetylase (HDAC1 and HDAC2) isolated from K562 erythroleukemia cells; format: cell-based
cells = format: functional; details: Homo sapiens, MDA435
HT-1080 [3] = assay: Antiproliferative activity against human HT1080 fibrosarcoma cell line; format: functional, cell-based
[4] = Antiproliferative activity against human MDA-435 breast carcinoma cell line at a dose of 50 uM; format: functional

SMILES | inhibition at 50 µM (HT-1080 [1]) | IC50 [2] | pIC50 (cells) | pIC50 (HT-1080 [3]) | inhibition at 50 µM [4] | pIC50 [2]
O=C(CCCCCCc1nc(-c2ccc(OC(F)(F)F)cc2)cs1)NO | 100% | 74 nM | 5.69 | – | – | –
O=C(CCCCCCCc1ccccc1)NO | – | 560 nM | – | – | – | –
COc1ccc(-c2cnc(CCCCCCC(=O)NO)o2)cc1 | – | 2.1 nM | 5.60 | 6.51 | – | –
O=C(CCCCCCc1cnc(-c2ccc(Br)cc2)o1)NO | – | 4.4 nM | – | 4.57 | 97% | –
COc1ccc(-c2csc(CCCCCCC(=O)NO)n2)cc1 | – | 2.5 nM | 5.53 | 5.44 | – | –
O=C(CCCCCCOc1ccccc1)NO | – | 330 nM | – | – | – | –
O=C(CCCCCCc1cnc(-c2ccc(OC(F)(F)F)cc2)o1)NO | – | 89 nM | 4.69 | 5.29 | – | –
O=C(CCCCCCc1ncc(-c2ccc(-c3ccc(Cl)cc3)cc2)o1)NO | – | 6.8 nM | 6.02 | 6.18 | – | –
O=C(CCCCCCc1nc(-c2ccccc2)cs1)NO | – | 19 nM | – | 5.29 | 99.7% | –
O=C(CCCCCCc1nc(-c2cccc(Br)c2)cs1)NO | – | 5.8 nM | – | 5.00 | 98.6% | –
O=C(CCCCCCc1ccc(-c2ccccc2)cc1)NO | – | 58 nM | – | – | – | –
O=C(CCCCCCc1nc(-c2ccc(C(F)(F)F)cc2)cs1)NO | – | 42 nM | 6.07 | 5.62 | – | –
O=C(CCCCCCc1nc(-c2ccc(-c3ccccc3)cc2)cs1)NO | – | 11 nM | 5.71 | 5.88 | – | –
O=C(CCCCCCc1cnc(-c2ccccc2)o1)NO | 23% | 13 nM | – | – | 6.12% | –
CNC(=O)C(=O)CCCCCCc1cnc(-c2ccc(Br)cc2)o1 | – | 30 nM | – | – | – | –
CNC(=O)C(=O)CCCCCCc1cnc(-c2ccccc2)s1 | – | 47 nM | – | – | – | –
O=C(CCCCCCc1ncc(-c2ccccc2)o1)NO | – | 9.8 nM | 5.66 | 5.08 | – | –
O=C(CCCCCCc1cnc(-c2ccc(F)cc2)o1)NO | 76% | 23 nM | 5.10 | – | – | –
CNC(=O)C(=O)CCCCCCc1cnc(-c2ccccc2)o1 | – | 21 nM | – | – | – | –
O=C(CCCCCCc1ncc(-c2ccc(Br)cc2)o1)NO | – | 2.7 nM | 5.17 | 5.11 | – | –
O=C(CCCCCCc1cnc(-c2ccc(-c3ccccc3)cc2)o1)NO | – | 12 nM | 4.01 | 4.82 | – | –
CNC(=O)C(=O)CCCCCCc1ncc(-c2ccc(OC)cc2)o1 | – | 11 nM | – | – | – | –
O=C(CCCCCCc1nc(-c2ccc(Br)cc2)cs1)NO | – | 8.5 nM | 5.09 | 5.25 | – | –
O=C(CCCCCCc1nc(-c2ccc3ccccc3c2)cs1)NO | – | 4.3 nM | 6.07 | 5.62 | – | –
COc1cccc(OC)c1-c1csc(CCCCCCC(=O)NO)n1 | – | 4.3 nM | 5.54 | 5.70 | – | –
O=C(CCCCCCNC(=O)c1ccccc1)NO | – | – | – | – | – | 6.00
